Measurements reported in PMC12707346, “Discovery and validation of small molecule stabilizers of mutant triose phosphate isomerase (TPI) as potential lead candidates for TPI deficiency” (SLAS discovery : advancing life sciences R & D, 2025).
Entries after “also recorded” stand apart in the source; their conditions may differ. Read-outs that look alike come from different tables or passages of the source.

Assay: Tissue distribution study in mice, 20 mg/kg i.p.
Assay type: in vivo, C57BL/6 J mice
Conditions: mouse; for concentration at 1 h / concentration at 2 h / concentration at 4 h / concentration at 8 h / concentration at 0.5 h / Kp at 1 h / Kp at 2 h / Kp at 4 h / Kp at 8 h / Kp at 0.5 h: male, IP 20 mg/kg; for concentration at 1 h / concentration at 2 h / concentration at 4 h / concentration at 8 h / concentration at 0.5 h: ip; for Kp at 1 h / Kp at 2 h / Kp at 4 h / Kp at 8 h / Kp at 0.5 h: read-out: Mean Tissue/ Plasma Conc Ratio
Experimental: Male C57BL/6 J (Jackson Laboratories) wild type mice (age: 40–60 days) weighing 25–30 g, were used for the tissue distribution study. Mice were randomly assigned in two groups: blank (n = 1) and treatment. The treatment group received 20 mg/kg compound 424 intraperitoneally (n = 15; 3 animals per time point i.e., 0.5, 1, 2, 4, and 8 h). Molport 002–877–424 was formulated in a vehicle consisting of 20 % DMSO, 50 % PEG300, and 30 % sterile water. At each time point animals were euthanized via isoflurane overdose. Blood was collected in ETDA-coated tubes at each time points and centrifuged at 15,000 x g for 5 min. The separated plasma was stored at −80 °C. Following blood collection, liver, kidney, skeletal muscle and brain were isolated, rinsed in normal saline and approximately 100 mg of tissues were snap-frozen and stored at −80 °C. All plasma and tissue samples were shipped on dry ice to Touchstone Biosciences for further analysis. Sample preparation and analysis was performed at Touchstone Biosciences exactly as described in [20].

[1] = C57BL/6 J, kidney, 20 mg/kg, Kidney, read-out: Mean Tissue
[2] = C57BL/6J, liver homogenate, 20 mg/kg, Liver, read-out: Mean Plasma or Tissue Homogenate Conc
[3] = C57BL/6J, liver homogenate, 20 mg/kg, Liver, read-out: Plasma or Tissue Homogenate Conc (individual animals)
[4] = C57BL/6J, liver, 20 mg/kg, Liver, read-out: Mean Tissue
[5] = C57BL/6J, muscle homogenate, 20 mg/kg, Muscle, read-out: Mean Plasma or Tissue Homogenate Conc
[6] = C57BL/6J, muscle homogenate, 20 mg/kg, Muscle, read-out: Plasma or Tissue Homogenate Conc (individual animals)
[7] = C57BL/6J, muscle, 20 mg/kg, Muscle, read-out: Mean Tissue
[8] = C57BL/6 J, plasma, 20 mg/kg, Plasma, read-out: Mean Plasma or Tissue Homogenate Conc
[9] = C57BL/6 J, plasma, 20 mg/kg, Plasma, read-out: Plasma or Tissue Homogenate Conc (individual animals)
[10] = C57BL/6J, muscle/plasma, Muscle

SMILES: c1ccc(-c2nnc(-c3ccccn3)nc2NC2CCCCC2)cc1 [MolPort-002-877-424, C1CCC(CC1)Nc2nc(nnc2c3ccccc3)c4ccccn4]
- concentration at 1 h [1]: 8510 ng/g
- concentration at 2 h [1]: 4070 ng/g
- concentration at 4 h [1]: 1760 ng/g
- concentration at 8 h [1]: 784 ng/g
- concentration at 0.5 h [2]: 3600 ng/mL
- concentration at 0.5 h [3]: 4280 ng/mL
- concentration at 1 h [2]: 3030 ng/mL
- concentration at 1 h [3]: 2450 ng/mL
- concentration at 2 h [2]: 1570 ng/mL
- concentration at 2 h [3]: 1370 ng/mL
- concentration at 4 h [2]: 687 ng/mL
- concentration at 4 h [3]: 539 ng/mL
- concentration at 8 h [2]: 273 ng/mL
- concentration at 8 h [3]: 205 ng/mL
- concentration at 0.5 h [4]: 14400 ng/g
- concentration at 1 h [4]: 12100 ng/g
- concentration at 2 h [4]: 6270 ng/g
- concentration at 4 h [4]: 2750 ng/g
- concentration at 8 h [4]: 1090 ng/g
- concentration at 0.5 h (C57BL/6 J, muscle homogenate, 20 mg/kg, Muscle, read-out: Mean Plasma or Tissue Homogenate Conc): 516 ng/mL
- concentration at 0.5 h (C57BL/6 J, muscle homogenate, 20 mg/kg, Muscle, read-out: Plasma or Tissue Homogenate Conc (individual animals)): 443 ng/mL
- concentration at 1 h [5]: 390 ng/mL
- concentration at 1 h [6]: 336 ng/mL
- concentration at 2 h [5]: 192 ng/mL
- concentration at 2 h [6]: 152 ng/mL
- concentration at 4 h [5]: 83.3 ng/mL
- concentration at 4 h [6]: 63.6 ng/mL
- concentration at 8 h [5]: 33.1 ng/mL
- concentration at 8 h [6]: 26.1 ng/mL
- concentration at 0.5 h (C57BL/6 J, muscle, 20 mg/kg, Muscle, read-out: Mean Tissue): 2060 ng/g
- concentration at 1 h [7]: 1560 ng/g
- concentration at 2 h [7]: 768 ng/g
- concentration at 4 h [7]: 333 ng/g
- concentration at 8 h [7]: 132 ng/g
- concentration at 0.5 h [8]: 10500 ng/mL
- concentration at 0.5 h [9]: 12300 ng/mL
- concentration at 1 h [8]: 9150 ng/mL
- concentration at 1 h [9]: 7700 ng/mL
- concentration at 2 h [8]: 4810 ng/mL
- concentration at 2 h [9]: 5560 ng/mL
- concentration at 4 h [8]: 2190 ng/mL
- concentration at 4 h [9]: 1930 ng/mL
- concentration at 8 h [8]: 1030 ng/mL
- concentration at 8 h [9]: 868 ng/mL
- Kp at 1 h [10]: 0.17
- Kp at 2 h [10]: 0.16
- Kp at 4 h [10]: 0.152
- Kp at 8 h [10]: 0.128
- Kp at 0.5 h (C57BL/6 J, Brain): 0.134
- Kp at 1 h (C57BL/6 J, Brain): 0.12
- Kp at 2 h (C57BL/6 J, Brain): 0.113
- Kp at 4 h (C57BL/6 J, Brain): 0.105
- Kp at 8 h (C57BL/6 J, Brain): 0.086
- Kp at 1 h (C57BL/6 J, Kidney): 0.929
- Kp at 2 h (C57BL/6 J, Kidney): 0.846
- Kp at 4 h (C57BL/6 J, Kidney): 0.801
- Kp at 8 h (C57BL/6 J, Kidney): 0.758
- Kp at 0.5 h (C57BL/6 J, Muscle): 0.197
- levels in muscle (20 mg/kg i.p.): 1000 to 1600 nM
- tissue distribution (20 mg/kg i.p., 20 mg/kg): accumulated preferentially in liver and kidney; also recorded: moderately brain-penetrant
